Tests used:
[1] = system: hNPCs; assay: hNPC attachment, proliferation and phenotype on co-assembled PA coatings (EdU, SOX-2, PAX6); format: cell-based, human
Excerpt: (§1) Neural progenitor cells (NPCs) were differentiated from human embryonic stem cells HUES 64 (Harvard University) (see FIG. 2C). In short, 70% confluent stem cell cultures grown in Matrigel (Thermo Fisher) coated plates with mTESR medium (STEMCELL Technologies), were switched to N2B27 medium (50% DMEM: F12, 50% Neurobasal, supplemented with NEAA, Glutamax, N2 and B27; Gibco) containing dual SMAD inhibitors (SB431542, DNSK International and LDN-193189, Tocris) for 12 days to induce the generation of neural progenitors. Neuralization was enhanced by supplementing medium with laminin from day 5 to 12. Next, neural rosettes were dissociated with neural rosette selection reagent (STEMCELL Technologies) to obtain NPCs, which are expanded in N2B27 (Gibco) medium supplemented with bFGF (Millipore). For experimentation in the different PA platforms, NPCs were dissociated with Accutase (Innovative Cell technology), and cultured in the distinct platforms with DMEM: F12+N2+B27 medium with hyclone penicillin-streptomycin (GE Healthcare) and ascorbic acid (0.2 μg/mL; Sigma-Aldrich).
(§2) For IKVAV PA treatments, hNPCs were cultured on ornithine coatings (German Glass, Chemglass Life Science) in 6 well and 24 well plates at a density of 500,000 cells/well and 80,000 cells/well respectively. hNPCs were treated with […] of IKVAV PAs ([PA]=6 mM, [KCl]=3 mM, [NaCl]=150 mM) or recombinant laminin protein (10 mg/mL) in solution. IKVAV PA2 and IKVAV PA5 were also mixed with 5 mM CaCl2) at a ratio PA:CaCl2) 6:1 to treat hNPCs. For 2D experiments, hNPCs were cultured on the different IKVAV PAs or laminin coatings in 6 well and 24 well plates at densities mentioned above. For co-assembled experiments, hNPCs were cultured on the different co-assembled PA coatings in 6 well and 24 well plates at a density of 400,000 cells/well and 50,000 cells/well respectively.
(§3) hNPCs were fed 4 times a week with DMEM: F12+N2^+B27 medium with hyclone penicillin-streptomycin and ascorbic acid. After 24 h, 72 h 1- or 2-weeks in vitro, cell lysates were harvested or fixed for WB or ICC, respectively. Three replicates per condition and at least three independent experiments were carried out for all conditions investigated.
For the hNPCs proliferation assay, 2 μM of the thymidine analog 5-ethynyl-2′-deoxyuridine (EdU, Thermo Fisher) was incorporated into the culture medium for 24 h. Cells were fixed at the indicated time points in 4% paraformaldehyde (PFA) for 15 min at RT. After fixation, samples were washed in PBS twice and then stained with Click-iT™ EdU Cell Proliferation Kit containing 11 mM CuSO4 (from 50 mM stock) and 1 μg/mL of Alexa Fluor-555 azide (from 0.5 mg/mL, Thermo Fisher) for 30 minutes at RT in the dark. The staining cocktail was then removed, and cells were washed with PBS. Then, hNPCs were counterstained with anti-rabbit SOX-2 antibody following the immunofluorescence protocol described below and 4′, 6-diamidino-2-phenylindole (DAPI, Thermo Fisher) at 5 μg/mL in PBS for 20 min at RT. The cells were then washed with PBS and mounted with Immu-Mount (Fisher Scientific) for imaging.
For immunofluorescence, fixed primary cultures or free-floating tissue sections (40 m Thick) were incubated in blocking buffer containing 0.02% Triton-X (Sigma-Aldrich), 1% NHS (Gibco) and PBS 1× (Gibco). Samples were incubated with primary antibodies over night at 4° C. Alexa-488, Alexa-555 and/or Alexa-647 (1:500, Thermofisher) were used as secondary antibodies. DAPI (1:500, Thermofisher) was used to stain nuclei. […]

[2] = target: T1, β1-INTEGRIN (ITGB1) (Homo sapiens, UniProt P05556); assay: ITGB1 activation and intracellular signaling in hNPCs treated with IKVAV PAs (confocal microscopy, WB); format: cell-based
T1 construct: endogenous in cells; host or cells: hNPCs differentiated from human embryonic stem cells HUES 64
T1 sequence (P05556 21-798): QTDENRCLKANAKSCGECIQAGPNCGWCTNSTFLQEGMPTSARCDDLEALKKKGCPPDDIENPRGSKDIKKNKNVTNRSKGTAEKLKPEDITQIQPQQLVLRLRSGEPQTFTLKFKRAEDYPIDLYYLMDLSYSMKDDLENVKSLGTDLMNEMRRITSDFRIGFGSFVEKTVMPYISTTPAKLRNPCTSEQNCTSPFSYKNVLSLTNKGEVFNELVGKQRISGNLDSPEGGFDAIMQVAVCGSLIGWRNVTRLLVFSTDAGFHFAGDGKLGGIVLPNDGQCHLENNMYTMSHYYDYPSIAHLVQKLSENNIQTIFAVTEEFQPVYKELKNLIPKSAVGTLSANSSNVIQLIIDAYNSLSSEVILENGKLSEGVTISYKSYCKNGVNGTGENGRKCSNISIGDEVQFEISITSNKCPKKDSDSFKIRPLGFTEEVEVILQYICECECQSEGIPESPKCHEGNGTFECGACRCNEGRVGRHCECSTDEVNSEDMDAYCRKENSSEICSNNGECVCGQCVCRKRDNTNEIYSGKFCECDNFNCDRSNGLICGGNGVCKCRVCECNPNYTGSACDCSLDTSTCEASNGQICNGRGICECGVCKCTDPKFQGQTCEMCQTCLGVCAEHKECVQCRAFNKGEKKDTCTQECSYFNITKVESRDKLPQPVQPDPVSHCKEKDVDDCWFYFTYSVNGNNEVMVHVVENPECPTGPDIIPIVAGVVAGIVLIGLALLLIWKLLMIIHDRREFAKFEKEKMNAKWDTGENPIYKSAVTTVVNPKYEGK
Excerpt: as §1, §2, §3
(§4) For immunofluorescence, fixed primary cultures or free-floating tissue sections (40 m Thick) were incubated in blocking buffer containing 0.02% Triton-X (Sigma-Aldrich), 1% NHS (Gibco) and PBS 1× (Gibco). Samples were incubated with primary antibodies over night at 4° C. Alexa-488, Alexa-555 and/or Alexa-647 (1:500, Thermofisher) were used as secondary antibodies. DAPI (1:500, Thermofisher) was used to stain nuclei. Finally, the samples were mounted on coverslips with Immu-Mount (Fisher Scientific) solution for imaging.
RIPA buffer (Thermofisher) with a cocktail of Halt Protease and Phosphatase Inhibitors (Thermofisher) was used to extract protein from in vitro and in vivo samples. For in vivo studies, spinal cord tissue was then sonicated using a horn sonicator (Branson) to break up the tissue. A Pierce™ BCA Protein Assay Kit (Thermofisher) was used to determine protein content for all samples used. Protein extracts obtained from cell cultures or tissue were separated using an SDS-polyacrylamide gel and electro-transferred to a nitrocellulose membrane (Bio-Rad). Membranes were blocked for 30 minutes to 1 hour using a 5% milk solution (Bio-Rad) and incubated over night with primary antibodies. Corresponding secondary HRP-conjugated antibodies (1:1000, ThermoFisher) were used for 1 h at room temperature. Radiance Bioluminescent ECL substrate (Azure Biosystems) was used to detect protein signal. The membranes were imaged using the Azure Biosystems imager and densitometry analysis were performed using ImageJ software.

[3] = T2-NMR spin-spin relaxation rate of PA assemblies; format: physicochemical; conditions: T2 relaxation of K residue of IKVAV PAs, no Ca2+
Protocol: NMR spectra were acquired at 600 MHz on a Tecmag NMR spectrometer using a Doty diffusion probe with a sweep width of 6 kHz and 16k data points or at 600 MHz on a Brucker Neo system with QCI-F cryoprobe.
NMR spectra for IKVAV PAs were recorded at 25° C. using TFA-d, H2O/D2O in 9/1 ratio (D2O contains 0.05 wt. % 3-(trimethylsilyl) propionic-2,2,3,3-d4 acid, sodium salt) as solvents. Chemical shifts are reported in part per million (ppm). Structural assignment was performed using ^1H,^1H-gCOSY, ^1H,^13C-gHSCQAD, TOCSY and NOESY. Multiplicities are quoted as singlet (s), doublet (d), multiplets (m), doublet of doublets (dd), doublet of doublet of doublets (ddd), triplet (t), quartet (q). The […] and typical spectra required 32 scans. Additional scans (512) were required for accurate estimation of the aromatic signal intensity since the epitope containing aromatic protons was present at only 10 mol %.
The spin-spin relaxation rates were measured using the Carr-Purcell-Gill-Meiboom pulse sequence with a delay time of 0.2 ms in a variable loop. The peak intensity data was fit to and exponential in the form:
where τ is the length of the delay time, R2 is the spin-spin relaxation rate and b are the baseline.

[4] = system: hNPCs; assay: Neuronal differentiation of hNPCs treated with IKVAV PAs (TUJ-1+ cells); format: cell-based, human
Excerpt: as §1, §2, §3, §4
For in vitro cell quantification, image files were imported into NIH Image J (1.51) software and the “analyze particles” and “cell counter” functions were used to measure the total number of cells in a determined area. Serial tissue sections were stained with NeuN and ChAT using free-floating immunostaining were quantified using Nikon Elements software. The rostral and caudal borders of the lesions were chosen as the first cross-sections that had NeuN staining in all four gray matter horns. 8 sections within the lesion were chosen per animal and expressed as number of neurons per section. Automated multichannel image acquisition, image stitching, and z-stack reconstruction ([…]) were carried out on a Nikon GasP R1 confocal microscope to image the entire selected cross-section for NeuN and Chat markers for all conditions.

[5] = system: murine model of severe spinal cord injury (SCI); assay: Corticospinal tract (CST) axon regrowth after SCI (BDA tracing); format: in vivo, mouse; conditions: 12 weeks after injury, BDA-labeled axons
Protocol: (§5) All experiments were conducted at the Simpson Querrey Institute at Northwestern University. 182 CD1 mice (Charles River) were subjects of this study (N=38 Sham, N=38 IKVAV PA2 alone, N=38 IKVAV PA2+FGF2 PA1, N=38 IKVAV PA2+FGF2 PA2, N=12 IKVAV PA1, N=12 Backbone PA, N=6 IKVAV PA4). The age of animals used in the study was in the range of 10-16 weeks. 8 independent in vivo experiments were carried out (injury+PA injection) and each of the 8 experiments had animals of the exact same age which were injected with at least the 4 main treatment groups: Sham, IKVAV PA2 alone, IKVAV PA2+FGF2 PA1, and IKVAV PA2+FGF2 PA2. Animals were anesthetized using 2.5% isoflurane gas with oxygen. A laminectomy was performed to expose the spinal cord at the T10-T11 spinal level. A severe contusive injury was performed using the Infinite Horizon Spinal Cord Impactor system (IH-0400 Precision Systems and Instrumentation) with 85 kdyn of impact force and a dwell time of 60 s. After the lesion, the skin was sutured using 9 mm wound clips (BD Biosciences) and the animals were recovered on a heating pad to maintain body temperature. Bladders were manually expressed daily during the entire 12 weeks of the experiment.
PAs (dissolved in sterile NaCl 0.9% solution at 1 wt %) were injected 24 h after SCI using a glass capillary micropipette (Sutter Instruments, Novato, CA) (outer diameter, 100 m) coated with Sigmacote (Sigma-Aldrich) to reduce surface tension as described elsewhere (19). The capillaries were loaded onto a Hamilton syringe using a female Luer adaptor (World Precision Instruments) controlled by a Micro4 microsyringe pump controller (World Precision Instruments). Under isoflurane anesthesia, autoclips were removed and the injury site was exposed. At 24 h post injury, the laminectomy in the spinal column was still intact and the bruise created by the lesion was visible. A stereotaxic Kopf apparatus was used to position the micropipette just dorsal to the lesion. The micropipette was lowered to a depth of 750 m measured from the dorsal surface of the cord, and 4-6 μL of the diluted amphiphile solution was injected at 1 L/min. […]
Axons labeled using BDA (Thermofisher, N7167) or stained with 5HT (Abcam) were quantified using Imaris® software version 9.3 as previously described (21). Lines were drawn across longitudinal spinal cord sections from the proximal border (PB) to the distal border (DB) of the SCI lesion at consistent distances and the number of axons intercepting the lines drawn was counted by researchers that were blinded to the experimental conditions. Multiple sections through the middle of the cord, where BDA or 5HT staining was denser, were counted per mouse and expressed as total intercepts per location, per animal. […]

[6] = system: murine model of severe spinal cord injury (SCI); assay: Glial scar, GAP-43, MBP, laminin and fibronectin in the SCI lesion (immunofluorescence, WB); conditions: mouse, in vivo
Protocol: as §5, with “After the lesion, the skin was sutured using 9 mm wound clips (BD Biosciences) and the animals were recovered on a heating pad to maintain body temperature. Bladders were manually expressed daily during the entire 12 weeks of the experiment.” left out
PAs (dissolved in sterile NaCl 0.9% solution at 1 wt %) were injected 24 h after SCI using a glass capillary micropipette (Sutter Instruments, Novato, CA) (outer diameter, 100 m) coated with Sigmacote (Sigma-Aldrich) to reduce surface tension as described elsewhere (19). […] The micropipette was lowered to a depth of 750 m measured from the dorsal surface of the cord, and 4-6 μL of the diluted amphiphile solution was injected at 1 L/min. […]

In the case of laminin, the “percentage of proliferating EdU+ and SOX2+ cells” value [1] is reported as “decreased significantly” and the “percentage of neuronal progenitor cells PAX6+” value ([1]; one week later) is reported as “increased percentage”.

With C16-A4E4GIKVAV [IKVAV PA8] the “in vitro bioactivity (summary)” value [2] was “low level of in vitro bioactivity”, the R2 [3] was 4.5 ± 0.2 s⁻¹ and the “percentage of induction of TUJ-1+ neuronal cells” value [4] was 7.5±0.5%.

With C16-AVA2E4GIKVAV [IKVAV PA7] the “in vitro bioactivity (summary)” value [2] was “low level of in vitro bioactivity”, the R2 [3] was 6.0 ± 0.03 s⁻¹ and the “percentage of induction of TUJ-1+ neuronal cells” value [4] was 7.4±0.6%.

In the case of C16-V2A2E2 (VVAAEE) [Backbone PA], the “CST axon regrowth within the lesion” value [5] is reported as “hardly observed” and the “glial scar (reactive astrocytes, GFAP) at the borders of the injury” value [6] is reported as “dense population of reactive astrocytes expressing high levels of GFAP”.

With C16-VA3E4GIKVAV [IKVAV PA6] the “in vitro bioactivity (summary)” value [2] was “low level of in vitro bioactivity”, the R2 [3] was 6.1 ± 0.8 s⁻¹ and the “percentage of induction of TUJ-1+ neuronal cells” value [4] was 7.9±1.3%.

With C16-AVG2E4GIKVAV [IKVAV PA3] the “in vitro bioactivity (summary)” value [2] was “low level of in vitro bioactivity”, the R2 [3] was 4.5 ± 0.7 s⁻¹ and the “percentage of induction of TUJ-1+ neuronal cells” value [4] was 7.5±0.6%.
